{
  "source": "patent US8198303B2",
  "about": "“Methods of use and compositions for the diagnosis and treatment of infectious diseases” (Sequella, Inc., priority 2002, dated 2012)",
  "origin": "cited, not measured here",
  "test_system": "M. tuberculosis",
  "conditions": "background statement on ethambutol",
  "data": [
    {"smiles": "CC[C@@H](CO)NCCN[C@@H](CC)CO", "note": "[ethambutol, Ethambutol]", "values": [
      {"measurement": "Minimum Inhibition Concentration (MIC)", "value": "about 5 μg/ml"}
    ]}
  ]
}
